In PubChem BioAssay AID1845203 (Molecular Pharmacology Branch, DTP, NCI, 2023):

Tested on: G-401 tumor spheroids, viability % test/control
Assay: Anticancer human tumor G-401 cell line growth inhibition;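 also: spheroids exposed to compound for 7 days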;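 as to viability, T/C: 100% = DMSO vehicle-treated spheroids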
Conditions: spheroids with HUVEC and MSC; for IC50: curve of first compound; for viability, T/C: stronger effect = lower value
Summary of the method: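 Complex tumor spheroids combined malignant cells with endothelial cells and mesenchymal stem cells. DNA-damaging drugs and DNA repair inhibitors were tested alone and in combination, at half-log dilutions down from clinical Cmax (top 10 microM if Cmax unknown), 0.25% DMSO final.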

[1] = second compound 1 µM, first compound 0.0316 µM
[2] = second compound 1 µM, first compound 0.1 µM
[3] = second compound 1 µM, first compound 0.316 µM
[4] = second compound 1 µM, first compound 1 µM
[5] = second compound 1 µM, first compound 3.16 µM
[6] = second compound 1 µM, first compound 10 µM
[7] = second compound 3.16 µM, first compound 0.0316 µM
[8] = second compound 3.16 µM, first compound 0.1 µM
[9] = second compound 3.16 µM, first compound 0.316 µM
[10] = second compound 3.16 µM, first compound 1 µM
[11] = second compound 3.16 µM, first compound 3.16 µM
[12] = second compound 3.16 µM, first compound 10 µM
[13] = second compound 10 µM, first compound 0.0316 µM
[14] = second compound 10 µM, first compound 0.1 µM
[15] = second compound 10 µM, first compound 0.316 µM
[16] = second compound 10 µM, first compound 1 µM
[17] = second compound 10 µM, first compound 3.16 µM
[18] = second compound 10 µM, first compound 10 µM
[19] = second compound 31.6 µM, first compound 0.0316 µM
[20] = second compound 31.6 µM, first compound 0.1 µM
[21] = second compound 31.6 µM, first compound 0.316 µM
[22] = second compound 31.6 µM, first compound 1 µM
[23] = second compound 31.6 µM, first compound 3.16 µM
[24] = second compound 31.6 µM, first compound 10 µM
[25] = second compound 100 µM, first compound 0.0316 µM
[26] = second compound 100 µM, first compound 0.1 µM
[27] = second compound 100 µM, first compound 0.316 µM
[28] = second compound 100 µM, first compound 1 µM
[29] = second compound 100 µM, first compound 3.16 µM
[30] = second compound 100 µM, first compound 10 µM

SMILES	IC50 (second compound 1 µM) [nM]	IC50 (second compound 3.16 µM) [nM]	IC50 (second compound 10 µM) [nM]	IC50 (second compound 31.6 µM) [nM]	IC50 (second compound 100 µM) [nM]	viability, T/C [1] [%]	viability, T/C [2] [%]	viability, T/C [3] [%]	viability, T/C [4] [%]	viability, T/C [5] [%]	viability, T/C [6] [%]	viability, T/C [7] [%]	viability, T/C [8] [%]	viability, T/C [9] [%]	viability, T/C [10] [%]	viability, T/C [11] [%]	viability, T/C [12] [%]	viability, T/C [13] [%]	viability, T/C [14] [%]	viability, T/C [15] [%]	other results
CC(C)n1c(=O)n(C)c2cnc3cc(F)c(-c4ccc(OCCCN5CCCCC5)nc4)cc3c21 + Cn1nnc2c(C(N)=O)ncn2c1=O	> 10000	> 10000	> 10000	> 10000	> 10000	99.9	104	102	104	103	76.5	81.6	102	102	102	99.4	83.6	105	98.9	97.5	viability, T/C [16]: 103%; viability, T/C [17]: 101%; viability, T/C [18]: 66.2%; viability, T/C [19]: 97.8%; viability, T/C [20]: 95.4%; viability, T/C [21]: 97.7%; viability, T/C [22]: 96.3%; viability, T/C [23]: 90.4%; viability, T/C [24]: 62.8%; viability, T/C [25]: 89.6%; viability, T/C [26]: 92.5%; viability, T/C [27]: 86.6%; viability, T/C [28]: 88%; viability, T/C [29]: 91.6%; viability, T/C [30]: 80.1%
COc1ccc([C@@H](O)c2cc(-c3ncnc4cc(N5CCOCC5)ccc34)c(F)cc2Cl)nn1 + Cn1nnc2c(C(N)=O)ncn2c1=O	1350	932	1260	1130	1020	103	95.7	88.1	60.9	21.9	9.93	96.6	90.8	91.4	46.3	20.6	10.6	105	96.1	90	viability, T/C [16]: 57.8%; viability, T/C [17]: 20.9%; viability, T/C [18]: 10.8%; viability, T/C [19]: 90.9%; viability, T/C [20]: 88.8%; viability, T/C [21]: 85.1%; viability, T/C [22]: 52%; viability, T/C [23]: 22.5%; viability, T/C [24]: 10.8%; viability, T/C [25]: 89.5%; viability, T/C [26]: 87.4%; viability, T/C [27]: 82.9%; viability, T/C [28]: 49.5%; viability, T/C [29]: 19.1%; viability, T/C [30]: 8.51%
